Tested on: eIF2α phosphorylation
Assay: Phospho-eIF2α (Ser51) sandwich ELISA in K562 cells
Assay type: cell-based
Settings: serum-free RPMI, 10 μM compound, 6 hours; for Multiple changes in eIF2α phosphorylation at 10 μM (absorbance standardized to control = 1): DMSO-treated control set to 1; for fold induction at 10 µM: Homo sapiens, DMSO-treated control set to 1, read-out: Multiple changes in eIF2α phosphorylation at 10 μM (absorbance standardized to control = 1)
Protocol: Pathscan Phospho-eIF2a (Ser51) Sandwich ELISA Kit #7286 from Cell signaling was used. The K562 cell line was cultured in serum-free RPMI medium at 37° C. in the presence of 5% CO2. Cells were treated with test compounds at a concentration of 10 μM. Six hours after compound treatment, the cells were lysed with a lysis buffer included in the kit to obtain 50 μg of protein by quantification. Afterwards, ELISA assay was performed according to the manufacturer's protocol to obtain absorbance. The absorbance for each obtained compound was standardized to a value of which the control (DMSO-treated) is set to 1.

| SMILES | Multiple changes in eIF2α phosphorylation at 10 μM (absorbance standardized to control = 1) | fold induction at 10 µM |
| --- | --- | --- |
| CC(C)(C)c1cccc(Nc2c(N[C@H]3CC[C@H](Oc4ccc(C(F)(F)F)cc4)CC3)c(=O)c2=O)c1 [Compound 28, 3-((3-(tert-Butyl)phenyl)amino)-4-(((1,4-trans)-4-(4-(trifluoromethyl)phenoxy)cyclohexyl)amino)cyclobut-3-ene-1,2-dione] | 1.92 | – |
| COc1cccc(Nc2c(N[C@H]3CC[C@H](Oc4ccc(C(F)(F)F)cc4)CC3)c(=O)c2=O)c1 [Compound 33, 3-((3-Methoxyphenyl)amino)-4-(((1,4-trans)-4-(4-(trifluoromethyl)phenoxy)cyclohexyl)amino)cyclobut-3-ene-1,2-dione] | – | 0.83 |
| CS(=O)(=O)c1ccc(O[C@H]2CC[C@H](Nc3c(Nc4ccccc4F)c(=O)c3=O)CC2)cc1 [Compound 65, 3-((2-Fluorophenyl)amino)-4-(((1,4-trans)-4-(4-(methylsulfonyl)phenoxy)cyclohexyl)amino)cyclobut-3-ene-1,2-dione] | – | 1.07 |
| CC(C)(C)c1ccccc1Nc1c(N[C@H]2CC[C@H](Oc3ccc(S(C)(=O)=O)cc3)CC2)c(=O)c1=O [Compound 77, 3-((2-(tert-Butyl)phenyl)amino)-4-(((1,4-trans)-4-(4-(methylsulfonyl)phenoxy)cyclohexyl)amino)cyclobut-3-ene-1,2-dione] | 1.70 | – |
